What was measured:
[1] = test system: MCL-1ΔNΔC; assay: High-throughput competitive FP binding screen, FITC-MCL-1 SAHB/MCL-1ΔNΔC interaction; conditions: selectivity for MCL-1ΔNΔC over BCL-XLΔC targeting (BCL-XL % Bound minus MCL-1 % Bound)
[2] = target: BCL-XLΔC (Homo sapiens, UniProt Q07817); assay: High-throughput competitive FP binding screen, FITC-BAD BH3/BCL-XLΔC interaction; conditions: FITC-BAD BH3/BCL-XLΔC interaction pair, competitive FP screen
[3] = target: MCL-1ΔNΔC (Homo sapiens, UniProt Q07820); assay: High-throughput competitive FP binding screen, FITC-MCL-1 SAHB/MCL-1ΔNΔC interaction; parameters: the C-terminal alpha-helix was deleted from each of these constructs; GST (N, cleaved yes); made in house; conditions: FITC-MCL-1 SAHB/MCL-1ΔNΔC interaction pair, competitive FP screen
Sequence of MCL-1ΔNΔC (Homo sapiens, UniProt Q07820) (Q07820 172-320 limits assumed, stated change not applied): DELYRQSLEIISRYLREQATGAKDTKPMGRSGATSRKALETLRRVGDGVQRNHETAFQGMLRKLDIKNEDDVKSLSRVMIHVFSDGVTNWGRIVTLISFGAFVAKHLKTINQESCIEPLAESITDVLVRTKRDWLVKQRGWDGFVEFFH

Sequence of BCL-XLΔC (Q07817 1-212 limits assumed, stated change not applied): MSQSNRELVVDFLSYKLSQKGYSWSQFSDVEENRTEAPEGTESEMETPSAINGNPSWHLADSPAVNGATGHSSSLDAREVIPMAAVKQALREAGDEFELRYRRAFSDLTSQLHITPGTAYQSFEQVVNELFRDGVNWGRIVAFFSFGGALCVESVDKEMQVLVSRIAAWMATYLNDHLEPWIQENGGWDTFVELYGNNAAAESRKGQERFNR

CCOc1ccc(S(=O)(=O)NC2C=C(Sc3nc[nH]n3)C(=O)c3ccccc32)cc1 (stereo not drawn)
Spec Values [1]: 101.1
BCL-XL % Bound [2]: 103.4%
MCL-1% Bound [3]: 2.333%

O=C1C(Sc2nc[nH]n2)=CC(NS(=O)(=O)c2ccc(F)cc2)c2ccccc21 (stereo not drawn)
Spec Values [1]: 91.16
BCL-XL % Bound [2]: 96.12%
MCL-1% Bound [3]: 4.952%

O=S(=O)(Nc1ccc(O)c2ccccc12)c1ccccc1
Spec Values [1]: 76.72
BCL-XL % Bound [2]: 96.39%
MCL-1% Bound [3]: 19.67%

O=C1C(Sc2nc[nH]n2)=C/C(=N/S(=O)(=O)c2cccs2)c2ccccc21
Spec Values [1]: 73.41
BCL-XL % Bound [2]: 93.16%
MCL-1% Bound [3]: 19.75%

Cc1cc2nc(N3CCC(C)CC3)c3ccccc3n2n1
Spec Values [1]: 108.5
BCL-XL % Bound [2]: 106.7%
MCL-1% Bound [3]: −1.786%

CC(C)(C)c1cc(Cc2ccc(O)c(O)c2)cc(C(C)(C)C)c1O
Spec Values [1]: 108.1
BCL-XL % Bound [2]: 96.57%
MCL-1% Bound [3]: −11.56%

Oc1c(C(c2cccs2)N2CCCCC2)ccc2cccnc12 (stereo not drawn)
Spec Values [1]: 105.7
BCL-XL % Bound [2]: 115.2%
MCL-1% Bound [3]: 9.463%

CC1(C)CC2CC(C)(CN2c2nc(N)c3c(N)nc4c(c3c2C#N)CC(=O)N4C2CCCC2)C1 (stereo not drawn)
Spec Values [1]: 104
BCL-XL % Bound [2]: 114.7%
MCL-1% Bound [3]: 10.72%

CCOc1ccc(S(=O)(=O)/N=C2/C=C(Sc3nc[nH]n3)C(=O)c3ccccc32)cc1
Spec Values [1]: 101.1
BCL-XL % Bound [2]: 103.4%
MCL-1% Bound [3]: 2.333%

O=C1NC(=S)N/C1=C1/C(=O)Nc2ccccc21
Spec Values [1]: 98.82
BCL-XL % Bound [2]: 112.9%
MCL-1% Bound [3]: 14.04%

Oc1ccc(/C=N/NC(=S)Nc2ccc(Cl)cc2Cl)c(O)c1O
Spec Values [1]: 98.23
BCL-XL % Bound [2]: 87.36%
MCL-1% Bound [3]: −10.87%

COc1cc(OC)c(C2=NOC(C(=O)Nc3cc(C)n(CC(=O)NCc4ccco4)n3)C2)cc1Cl (stereo not drawn)
Spec Values [1]: 98.12
BCL-XL % Bound [2]: 83.62%
MCL-1% Bound [3]: −14.5%

CCOC(=O)/C(C#N)=C\c1ccc(N2CCOCC2)cc1
Spec Values [1]: 96.6
BCL-XL % Bound [2]: 78.1%
MCL-1% Bound [3]: −18.5%

Cc1ccc(C2=NC(=O)/C(=C/c3cc(O)c(O)c(Br)c3)S2)cc1
Spec Values [1]: 93.98
BCL-XL % Bound [2]: 96.59%
MCL-1% Bound [3]: 2.607%

O=C1C(Sc2nc[nH]n2)=C/C(=N/S(=O)(=O)c2ccc(F)cc2)c2ccccc21
Spec Values [1]: 91.16
BCL-XL % Bound [2]: 96.12%
MCL-1% Bound [3]: 4.952%

NC(=O)c1c(Nc2nc3c(F)cccc3s2)sc2c1CCCC2
Spec Values [1]: 89.1
BCL-XL % Bound [2]: 103.9%
MCL-1% Bound [3]: 14.83%

O=C(c1ccccc1)c1ccc2nc(-c3ccco3)c(-c3ccco3)nc2c1
Spec Values [1]: 86.7
BCL-XL % Bound [2]: 101.3%
MCL-1% Bound [3]: 14.6%

CC(C)(C)c1cc(O)c2oc(=O)c(-c3nc(-c4ccccc4F)no3)cc2c1
Spec Values [1]: 84.11
BCL-XL % Bound [2]: 71.1%
MCL-1% Bound [3]: −13.01%

C/N=c1\scc(-c2c[nH]c3ccccc23)n1C
Spec Values [1]: 83.96
BCL-XL % Bound [2]: 114.1%
MCL-1% Bound [3]: 30.17%

Cc1ccc(NC(=O)COc2ncnc3c2cnn3-c2ccccc2)cc1
Spec Values [1]: 83.71
BCL-XL % Bound [2]: 99.91%
MCL-1% Bound [3]: 16.2%

O=S(=O)(Nc1ccc(Oc2ccc(Cl)cc2C2CCCCC2)nc1)c1cccc2nonc12
Spec Values [1]: 82.7
BCL-XL % Bound [2]: 103.4%
MCL-1% Bound [3]: 20.72%

CC(C)c1ccc(C2=CC(=O)C=CC2=O)cc1
Spec Values [1]: 82.58
BCL-XL % Bound [2]: 89.1%
MCL-1% Bound [3]: 6.516%

CCc1cccc(NC(=O)/C=C/c2ccco2)c1
Spec Values [1]: 81.13
BCL-XL % Bound [2]: 80.4%
MCL-1% Bound [3]: −0.7334%

Cc1occc1-c1nnc2n1N=C(c1ccc(-c3cc(Cl)ccc3Cl)o1)CS2
Spec Values [1]: 81.03
BCL-XL % Bound [2]: 104%
MCL-1% Bound [3]: 22.98%

Cc1cc(C)c2nc(N3CCCN(C(=O)c4ccco4)CC3)c(C#N)cc2c1
Spec Values [1]: 80.8
BCL-XL % Bound [2]: 92.2%
MCL-1% Bound [3]: 11.4%

Cc1ccc(C)n1-c1cc(Cl)ccc1C(=O)O
Spec Values [1]: 79.84
BCL-XL % Bound [2]: 75.93%
MCL-1% Bound [3]: −3.914%

O=C(OCc1ccc(F)cc1)c1cc(-c2ccco2)nc2ccccc12
Spec Values [1]: 79.65
BCL-XL % Bound [2]: 101.6%
MCL-1% Bound [3]: 21.94%

Cc1ccc(NC(=S)Nc2ccc3nc(-c4ccco4)c(-c4ccco4)nc3c2)cc1
Spec Values [1]: 78.01
BCL-XL % Bound [2]: 75.97%
MCL-1% Bound [3]: −2.047%

Oc1ccc2cc3c4cc(Br)ccc4nc-3oc2c1O
Spec Values [1]: 76.69
BCL-XL % Bound [2]: 90.07%
MCL-1% Bound [3]: 13.37%

O=C1/C(=C\C=C\c2ccco2)SC(=S)N1NCc1ccccc1O
Spec Values [1]: 76.1
BCL-XL % Bound [2]: 95.8%
MCL-1% Bound [3]: 19.8%

COC(=O)/C=C1/OC(c2ccc(Cl)cc2)=CC1=O
Spec Values [1]: 75.38
BCL-XL % Bound [2]: 97.17%
MCL-1% Bound [3]: 21.79%

O=C1CSCC(=O)N1c1csc(C(F)(F)F)c1-c1ccccc1
Spec Values [1]: 74.8
BCL-XL % Bound [2]: 96.35%
MCL-1% Bound [3]: 21.55%

[Na+].[Na+].[O-]c1c(Cl)cc(Cl)cc1Sc1cc(Cl)cc(Cl)c1[O-]
Spec Values [1]: 73.22
BCL-XL % Bound [2]: 100.4%
MCL-1% Bound [3]: 27.2%

CN1c2ccccc2C(C)(C)C12C=Cc1cc(O)ccc1O2 (stereo not drawn)
Spec Values [1]: 73.1
BCL-XL % Bound [2]: 111%
MCL-1% Bound [3]: 37.92%

COC(=O)c1cc(OC(=O)c2ccccc2Br)n(C)n1
Spec Values [1]: 72.92
BCL-XL % Bound [2]: 103.1%
MCL-1% Bound [3]: 30.23%

O=c1oc2ccccc2c2oc3cc(O)c(O)cc3c12
Spec Values [1]: 72.31
BCL-XL % Bound [2]: 84.9%
MCL-1% Bound [3]: 12.59%

Oc1cccnc1NC(c1ccc(F)cc1)c1ccc2cccnc2c1O (stereo not drawn)
Spec Values [1]: 71.24
BCL-XL % Bound [2]: 113.7%
MCL-1% Bound [3]: 42.49%

Cc1cc2c(n1-c1ccc(C(=O)O)cc1)CCCC2
Spec Values [1]: 71.18
BCL-XL % Bound [2]: 65.33%
MCL-1% Bound [3]: −5.85%

COc1ccc(C(=O)c2sc3cc(-c4ccco4)cc(C(F)(F)F)c3c2N)cc1OC
Spec Values [1]: 70.97
BCL-XL % Bound [2]: 85.27%
MCL-1% Bound [3]: 14.29%

Cc1occc1-c1nnc2sc(Cc3cccc4ccccc34)nn12
Spec Values [1]: 70.8
BCL-XL % Bound [2]: 129.5%
MCL-1% Bound [3]: 58.7%

O=C(Nc1ccccc1)C(C(F)(F)F)C(F)(F)F
Spec Values [1]: 70.63
BCL-XL % Bound [2]: 82.61%
MCL-1% Bound [3]: 11.98%

CC1CCN(C2=NN3C(=N)/C(=C\c4ccc(SCc5ccco5)o4)C(=O)N=C3S2)CC1
Spec Values [1]: 70.38
BCL-XL % Bound [2]: 84.68%
MCL-1% Bound [3]: 14.3%

CCCCn1nnnc1COC(=O)/C(C#N)=C/c1ccc(N(C)C)cc1
Spec Values [1]: 70.27
BCL-XL % Bound [2]: 62.97%
MCL-1% Bound [3]: −7.306%

O=C1NC(=O)/C(=C/c2ccc(-c3ccc(S(=O)(=O)N4CCOCC4)cc3)o2)S1
Spec Values [1]: 69.33
BCL-XL % Bound [2]: 107.9%
MCL-1% Bound [3]: 38.57%

Cc1ccc2[nH]c3nc(=S)[nH]nc3c2c1
Spec Values [1]: 69.2
BCL-XL % Bound [2]: 107.9%
MCL-1% Bound [3]: 38.65%

CCOC(=O)c1cc(C#N)c(SCC(=O)c2cc3ccccc3oc2=O)[nH]c1=O
Spec Values [1]: 68.9
BCL-XL % Bound [2]: 100.2%
MCL-1% Bound [3]: 31.28%

N#CC1=C(c2ccc(Cl)cc2)C2CSc3ccccc3C2NC1=O (stereo not drawn)
Spec Values [1]: 68.29
BCL-XL % Bound [2]: 87.67%
MCL-1% Bound [3]: 19.37%

Cc1ccc2c(c1C)NC(C(=O)O)C1CC=CC21 (stereo not drawn)
Spec Values [1]: 68.3
BCL-XL % Bound [2]: 82.8%
MCL-1% Bound [3]: 14.6%

— US20150315211A1, “SMALL MOLECULES FOR THE MODULATION OF MCL-1 AND METHODS OF MODULATING CELL DEATH, CELL DIVISION, CELL DIFFERENTIATION AND METHODS OF TREATING DISORDERS” (priority 2010, published 2015)
